Reference: US20210267203A1, “PESTICIDALLY ACTIVE AZOLE-AMIDE COMPOUNDS” (SYNGENTA PARTICIPATIONS AG, priority 2018, published 2021)

Assays:
Type in all cases: in vivo
[1] = test system: Myzus persicae (Green Peach Aphid); assay: Example B13: activity against Myzus persicae (green peach aphid), 96-well sucrose solution; conditions: 120 h, application rate 50 ppm, 5 days after infestation
Description: Example B13: Activity Against Myzus persicae (Green Peach Aphid)
Test compounds prepared from 10,000 ppm DMSO stock solutions were applied by a liquid handling robot into 96-well microtiter plates and mixed with a sucrose solution. Parafilm was stretched over the 96-well microtiter plate and a plastic stencil with 96 holes was placed onto the plate. Aphids were sieved into the wells directly onto the Parafilm. The infested plates were closed with a gel blotting card and a second plastic stencil and then turned upside down. The samples were assessed for mortality 5 days after infestation.

[2] = test system: Diabrotica Balteata (Corn Root Worm); assay: Example B1: Diabrotica balteata (corn root worm), maize sprouts sprayed, L2 larvae; conditions: 96 h, application rate 200 ppm, 4 days after infestation, read-out: effect in at least one of the two categories (mortality or growth inhibition)
Procedure: Example B1: Diabrotica Balteata (Corn Root Worm)
Maize sprouts placed onto an agar layer in 24-well microtiter plates were treated with aqueous test solutions prepared from 10,000 ppm DMSO stock solutions by spraying. After drying, the plates were infested with L2 larvae (6 to 10 per well). The samples were assessed for mortality and growth inhibition in comparison to untreated samples 4 days after infestation.
(§1) The following compounds gave an effect of at least 80% in at least one of the two categories (mortality or growth inhibition) at an application rate of 200 ppm: […]

[3] = test system: Plutella xylostella (Diamond Back Moth); assay: Example B5: Plutella xylostella (diamond back moth), artificial diet, 24-well, eggs; conditions: 192 h, application rate 200 ppm, 8 days after infestation, read-out: effect in at least one of the two categories (mortality or growth inhibition)
Procedure: Example B5: Plutella xylostella (Diamond Back Moth)
24-well microtiter plates with artificial diet were treated with aqueous test solutions prepared from 10,000 ppm DMSO stock solutions by pipetting. After drying, Plutella eggs were pipetted through a plastic stencil onto a gel blotting paper and the plate was closed with it. The samples were assessed for mortality and growth inhibition in comparison to untreated samples 8 days after infestation. The following compounds gave an effect of at least 80% in at least one of the two categories (mortality or growth inhibition) at an application rate of 200 ppm: […]

[4] = test system: Spodoptera littoralis (Egyptian Cotton Leaf Worm); assay: Example B9: Spodoptera littoralis (Egyptian cotton leaf worm), cotton leaf discs sprayed, L1 larvae; conditions: foliar, 72 h, application rate 200 ppm, 3 days after infestation
Procedure: Example B9: Spodoptera littoralis (Egyptian Cotton Leaf Worm)
Cotton leaf discs were placed onto agar in 24-well microtiter plates and sprayed with aqueous test solutions prepared from 10,000 ppm DMSO stock solutions. After drying the leaf discs were infested with five L1 larvae. The samples were assessed for mortality, anti-feeding effect, and growth inhibition in comparison to untreated samples 3 days after infestation. Control of Spodoptera littoralis by a test sample is given when at least one of the three categories (i.e. mortality, anti-feedant effect, and growth inhibition) is higher than the untreated sample.

[5] = test system: Plutella xylostella (Diamondback Moth); assay: Example B14: activity against Plutella xylostella (diamondback moth), 96-well artificial diet; conditions: 216 h, application rate 500 ppm, 9 days after infestation
Procedure: Example B14: Activity Against Plutella xylostella (Diamondback Moth)
96-well microtiter plates containing artificial diet were treated with aqueous test solutions, prepared from 10,000 ppm DMSO stock solutions, by a liquid handling robot. After drying, eggs (30 per well) were infested onto a netted lid which was suspended above the diet. The eggs hatch and L1 larvae move down to the diet. The samples were assessed for mortality 9 days after infestation.
The following compounds gave an effect of at least 80% average mortality at an application rate of 500 ppm: […]

[6] = test system: Chilo suppressalis (Striped Rice Stemborer); assay: Example B4: Chilo suppressalis (striped rice stemborer), artificial diet, L2 larvae; conditions: 144 h, application rate 200 ppm, 6 days after infestation
Procedure: Example B4: Chilo suppressalis (Striped Rice Stemborer)
24-well microtiter plates with artificial diet were treated with aqueous test solutions prepared from 10,000 ppm DMSO stock solutions by pipetting. After drying, the plates were infested with L2 larvae (6-8 per well). The samples were assessed for mortality, anti-feeding effect, and growth inhibition in comparison to untreated samples 6 days after infestation. Control of Chilo suppressalis by a test sample is given when at least one of the categories (i.e. mortality, anti-feedant effect, and growth inhibition) is higher than the untreated sample.

[7] = test system: Myzus persicae (Green Peach Aphid); assay: Example B8: Myzus persicae (green peach aphid), intrinsic activity; conditions: 120 h, test rate 12 ppm, sucrose solution, 24-well, 5 days after infestation
Description: Example B8: Myzus persicae (Green Peach Aphid), Intrinsic Activity
Test compounds prepared from 10,000 ppm DMSO stock solutions were applied by pipette into 24-well microtiter plates and mixed with sucrose solution. The plates were closed with a stretched Parafilm. A plastic stencil with 24 holes was placed onto the plate and infested pea seedlings were placed directly on the Parafilm. The infested plate was closed with a gel blotting paper and another plastic stencil and then turned upside down. The samples were assessed for mortality 5 days after infestation.

[8] = test system: Euschistus heros (Neotropical Brown Stink Bug); assay: Example B2: Euschistus heros (neotropical brown stink bug), soybean leaves sprayed, N2 nymphs; conditions: 120 h, application rate 200 ppm, 5 days after infestation, read-out: effect in at least one of the two categories (mortality or growth inhibition)
Procedure: Example B2: Euschistus heros (Neotropical Brown Stink Bug)
Soybean leaves on agar in 24-well microtiter plates were sprayed with aqueous test solutions prepared from 10,000 ppm DMSO stock solutions. After drying the leaves were infested with N2 nymphs. The samples were assessed for mortality and growth inhibition in comparison to untreated samples 5 days after infestation.
as §1

CC(c1ncnn1-c1ncccn1)N(CC1CC1)C(=O)c1cc(OC2CC2)cc(C(F)(F)F)c1 (stereo not drawn) [P51, 3-(cyclopropoxy)-N-(cyclopropylmethyl)-N-[1-(2-pyrimidin-2-yl-1,2,4-triazol-3-yl)ethyl]-5-(trifluoromethyl)benzamide]
≥ 80%: mortality at 50 ppm [1] | percent effect (mortality or growth inhibition) at 200 ppm [2] | percent effect (mortality or growth inhibition) at 200 ppm [3] | percent control (mortality, anti-feedant effect or growth inhibition) at 200 ppm [4] | mortality at 500 ppm [5]

CC(NC(=O)c1cc(-c2ccccc2C(F)(F)F)cc(C(F)(F)F)c1)c1ncnn1-c1ncccn1 (stereo not drawn) [P69, N-[1-(2-pyrimidin-2-yl-1,2,4-triazol-3-yl)ethyl]-3-(trifluoromethyl)-5-[2-(trifluoromethyl)phenyl]benzamide]
≥ 80%: mortality at 50 ppm [1] | percent effect (mortality or growth inhibition) at 200 ppm [2] | percent effect (mortality or growth inhibition) at 200 ppm [3] | percent control (mortality, anti-feedant effect or growth inhibition) at 200 ppm [4] | percent control (mortality, anti-feedant effect or growth inhibition) at 200 ppm [6]

CC(NC(=O)c1cc(C(F)(F)F)cc(C(F)(F)C2CCC2)c1)c1ncnn1-c1ncccn1 (stereo not drawn) [P66, 3-[cyclobutyl(difluoro)methyl]-N-[1-(2-pyrimidin-2-yl-1,2,4-triazol-3-yl)ethyl]-5-(trifluoromethyl)benzamide]
≥ 80%: percent control (mortality, anti-feedant effect or growth inhibition) at 200 ppm [6]

CC(NC(=O)c1cc(C(F)(F)F)cc(C2(C#N)CC2)c1)c1ncnn1-c1ccccn1 (stereo not drawn) [P76, 3-(1-cyanocyclopropyl)-N-[1-[2-(2-pyridyl)-1,2,4-triazol-3-yl]ethyl]-5-(trifluoromethyl)benzamide]
≥ 80%: percent effect (mortality or growth inhibition) at 200 ppm [2] | percent effect (mortality or growth inhibition) at 200 ppm [3] | percent control (mortality, anti-feedant effect or growth inhibition) at 200 ppm [4] | percent control (mortality, anti-feedant effect or growth inhibition) at 200 ppm [6]

CC(c1ncnn1-c1ncccn1)N(CC1CC1)C(=O)c1cccc(C2CC2C(F)(F)F)c1 (stereo not drawn) [P23, N-(cyclopropylmethyl)-N-[1-(2-pyrimidin-2-yl-1,2,4-triazol-3-yl)ethyl]-3-[2-(trifluoromethyl)cyclopropyl]benzamide]
≥ 80%: mortality at 50 ppm [1] | percent effect (mortality or growth inhibition) at 200 ppm [3] | mortality at 12 ppm [7] | mortality at 500 ppm [5]

CC(c1ncnn1-c1ncccn1)N(CC1CC1)C(=O)c1cc(C(F)(F)F)cc(C2(C#N)CC2)n1 (stereo not drawn) [P33, 6-(1-cyanocyclopropyl)-N-(cyclopropylmethyl)-N-[1-(2-pyrimidin-2-yl-1,2,4-triazol-3-yl)ethyl]-4-(trifluoromethyl)pyridine-2-carboxamide]
≥ 80%: mortality at 50 ppm [1] | percent effect (mortality or growth inhibition) at 200 ppm [2] | percent effect (mortality or growth inhibition) at 200 ppm [3] | mortality at 500 ppm [5]

CC(c1ncnn1-c1ncccn1)N(CC1CC1)C(=O)c1cc(C(F)(F)F)nc(S(C)(=O)=O)c1 (stereo not drawn) [P53, N-(cyclopropylmethyl)-2-methylsulfonyl-N-[1-(2-pyrimidin-2-yl-1,2,4-triazol-3-yl)ethyl]-6-(trifluoromethyl)pyridine-4-carboxamide]
≥ 80%: percent effect (mortality or growth inhibition) at 200 ppm [8]

CC(c1ncnn1-c1ncccn1)N(CC1CC1)C(=O)c1cccc(C2(C#N)CC2)c1 (stereo not drawn) [P21, 3-(1-cyanocyclopropyl)-N-(cyclopropylmethyl)-N-[1-(2-pyrimidin-2-yl-1,2,4-triazol-3-yl)ethyl]benzamide]
≥ 80%: mortality at 50 ppm [1] | mortality at 12 ppm [7] | mortality at 500 ppm [5]

CC(c1ncnn1-c1ncccn1)N(CC1CC1)C(=O)c1cc(C(F)(F)F)cc(C2(C)CC2(F)F)c1 (stereo not drawn) [P44, N-(cyclopropylmethyl)-3-(2,2-difluoro-1-methyl-cyclopropyl)-N-[1-(2-pyrimidin-2-yl-1,2,4-triazol-3-yl)ethyl]-5-(trifluoromethyl)benzamide]
≥ 80%: mortality at 50 ppm [1] | percent effect (mortality or growth inhibition) at 200 ppm [2] | percent effect (mortality or growth inhibition) at 200 ppm [3] | percent effect (mortality or growth inhibition) at 200 ppm [8] | percent control (mortality, anti-feedant effect or growth inhibition) at 200 ppm [4] | mortality at 500 ppm [5]

CC(NC(=O)c1cc(-c2cccc(C(F)(F)F)c2)cc(C(F)(F)F)c1)c1ncnn1-c1ncccn1 (stereo not drawn) [P68, N-[1-(2-pyrimidin-2-yl-1,2,4-triazol-3-yl)ethyl]-3-(trifluoromethyl)-5-[3-(trifluoromethyl)phenyl]benzamide]
≥ 80%: mortality at 50 ppm [1] | percent effect (mortality or growth inhibition) at 200 ppm [2] | percent effect (mortality or growth inhibition) at 200 ppm [3] | percent control (mortality, anti-feedant effect or growth inhibition) at 200 ppm [4] | percent control (mortality, anti-feedant effect or growth inhibition) at 200 ppm [6]

CC(c1ncnn1-c1ncccn1)N(CC1CC1)C(=O)c1cc(C(F)(F)F)cc(C2(C(F)(F)F)CC2(F)F)c1 (stereo not drawn) [P41, N-(cyclopropylmethyl)-3-[2,2-difluoro-1-(trifluoromethyl)cyclopropyl]-N-[1-(2-pyrimidin-2-yl-1,2,4-triazol-3-yl)ethyl]-5-(trifluoromethyl)benzamide]
≥ 80%: percent effect (mortality or growth inhibition) at 200 ppm [2] | percent effect (mortality or growth inhibition) at 200 ppm [3] | percent effect (mortality or growth inhibition) at 200 ppm [8] | percent control (mortality, anti-feedant effect or growth inhibition) at 200 ppm [4] | mortality at 500 ppm [5]

CC(c1ncnn1-c1ncccn1)N(CC1CC1)C(=O)c1cccc(C(F)(F)C2CC2)c1 (stereo not drawn) [P40, 3-[cyclopropyl(difluoro)methyl]-N-(cyclopropylmethyl)-N-[1-(2-pyrimidin-2-yl-1,2,4-triazol-3-yl)ethyl]benzamide]
≥ 80%: mortality at 50 ppm [1] | percent effect (mortality or growth inhibition) at 200 ppm [2] | percent effect (mortality or growth inhibition) at 200 ppm [3] | percent control (mortality, anti-feedant effect or growth inhibition) at 200 ppm [4] | mortality at 500 ppm [5]

CC(c1ncnn1-c1ncccn1)N(CC1CC1)C(=O)c1cc(OC2CC2)cc(OC2CC2)c1 (stereo not drawn) [P60, 3,5-bis(cyclopropoxy)-N-(cyclopropylmethyl)-N-[1-(2-pyrimidin-2-yl-1,2,4-triazol-3-yl)ethyl]benzamide]
≥ 80%: mortality at 50 ppm [1] | percent effect (mortality or growth inhibition) at 200 ppm [2] | percent effect (mortality or growth inhibition) at 200 ppm [3] | mortality at 500 ppm [5]

CC(NC(=O)c1cc(-c2ccc(C(F)(F)F)cc2)cc(C(F)(F)F)c1)c1ncnn1-c1ncccn1 (stereo not drawn) [P67, N-[1-(2-pyrimidin-2-yl-1,2,4-triazol-3-yl)ethyl]-3-(trifluoromethyl)-5-[4-(trifluoromethyl)phenyl]benzamide]
≥ 80%: mortality at 50 ppm [1] | percent effect (mortality or growth inhibition) at 200 ppm [2] | percent effect (mortality or growth inhibition) at 200 ppm [3] | percent control (mortality, anti-feedant effect or growth inhibition) at 200 ppm [6]

CC(NC(=O)c1cc(C2CC2)cc(C(F)(F)F)c1)c1ncnn1-c1ccc(Br)cn1 (stereo not drawn) [P74, N-[1-[2-(5-bromo-2-pyridyl)-1,2,4-triazol-3-yl]ethyl]-3-cyclopropyl-5-(trifluoromethyl)benzamide]
≥ 80%: percent effect (mortality or growth inhibition) at 200 ppm [2] | percent effect (mortality or growth inhibition) at 200 ppm [3] | percent control (mortality, anti-feedant effect or growth inhibition) at 200 ppm [4] | percent control (mortality, anti-feedant effect or growth inhibition) at 200 ppm [6]
